Patent US9078899B2, “Pyrazolyl-based carboxamides II” (Grünenthal GmbH, priority 2013, dated 2015)

Experiments:
[1] = test system: Interleukin-2 (IL-2) production/release; experiment: Jurkat IL-2 Production Assay; assay type: cell-based; details: Homo sapiens; Jurkat T cells clone E6-1, 15 μg/ml PHA for 22 hours, IL-2 in supernatant
Experimental: Jurkat IL-2 Production Assay
The effect of compounds of the invention on Interleukin-2 (IL-2) production/release was tested in the Jurkat T cell line (ECACC) clone E6-1.
Jurkat T cells were cultured in DMEM/F12/Glutamax (Gibco) containing 10% FCS (Gibco), and maintained at 37° C., 5% CO2. Cell were split twice a week [5*10^6 (Mon-Thu) and 1*10^7 (Thu-Mon) cells/50 ml medium in T-175 ZK culture flasks, respectively].
Prior to experiment, cells were seeded on 96 well plates (Cellstar 96 Well; Cat No. 655180, Greiner bio-one) at a density of 5*10^5 cells/well in DMEM/F12/Glutamax (Gibco) containing 10% FCS (Gibco), and incubated for 60 min at 37° C., 5% CO2. Subsequently, compounds were added and cells were allowed to incubate for 30 min at 37° C., 5% CO2. Cells were then stimulated with 15 μg/ml Phytohemagglutinin (PHA; Sigma) for 22 hours at 37° C., 5% CO2.
Before sampling of the supernatants, cells were spun down (200*g/5 min/RT). The amount of IL-2 released into the supernatant was quantified with the human IL-2 AlphaLisa kit (Perkin Elmer) according to manufacturer's instructions. Luminescence proximity measurements were carried out in the Synergy H4 reader (BioTek) employing the fluorescence setting of the reader (ex: 680/30 nm; em: 620/40 nm).
Inhibition of IL-Production/Release in/from Jurkat T Cells was Quantified as Follows:
Zero percent inhibition (MAX) was defined as the [IL-2] determined in supernatants derived from cells to which PHA & DMSO-only had been added instead of compound. Hundred percent inhibition (MIN) was defined as the [IL-2] determined in supernatants derived from cells that had been pre-treated with 1 μM CyclosporineA (Sigma) before the addition of 15 μg/ml PHA.
For routine IC50 determinations of compounds, 8 concentrations of a serial dilution (1:3.16) were tested, starting off from 10 μM.

CRAC channel = target: T1, CRAC channel (Homo sapiens, UniProt Q96D31); experiment: HEK Calcium Influx Assay (FLIPR); assay type: cell-based; details: 10 μM; endogenous SOC in HEK293 cells, thapsigargin store depletion, Ca2+ signal 9.5-10 min post-administration; read-out: % inhib.[@ 10 μM] FLIPR
T1 construct: host or cells: HEK293
Experimental: The effect of compounds of the invention on intracellular [Ca^2+] was tested in the HEK293 cell line (ECACC).
HEK293 cells were cultured in DMEM/F12/Glutamax (Gibco) containing 10% FCS (Gibco), and maintained at 37° C., 5% CO2. Cell were split twice a week [3*10^6 (Mon-Thu) and 1*10^6 (Thu-Mon) cells/50 ml medium in T-175 ZK culture flasks, respectively]. Twenty four hours pre-experiment, cells were seeded on 96 well plates (Poly-D-Lysine 96well Black/Clear Plate, BD Biocoat REF 356640) at a density of 40,000 cells/well in DMEM/F12 (Gibco) containing 10% FCS (Gibco), and maintained at 37° C., 5% CO2.
Prior to store-depletion, cell culture medium was removed and cells were loaded with the a Calcium-sensitive fluorescent dye comprised within the Calcium-4-assay kit (Molecular Devices) in nominally Ca^2+-free HBS buffer (140 mM NaCl, 4 mM KCl, 0.2 mM MgCl2, 11 mM D-glucose, and 10 mM HEPES, pH 7.4) according to manufacturer's instruction for 60 min at 37° C., 5% CO2.
Passive depletion of intracellular Ca^2+-stores was then triggered by employing the SERCA inhibitor thapsigargin (2 μM final) for 10 min in the dark (RT). To prevent immediate Ca^2+-entry via the activated Store-operated channels (SOCs), cells were maintained in Ca^2+-free HBS buffer comprising 100 μM EGTA during store-depletion.
Intracellular changes in [Ca^2+] were subsequently monitored with the FLIPR device (Molecular Devices). In brief, baseline imaging post-store depletion was allowed for 1 min before adjusting the extracellular buffer to 3 mM CaCl2. Increases in intracellular [Ca^2+] due to pre-activated SOC channels were monitored for 15 min until intracellular Ca^2+ levels had declined into a steady-state. Finally, compounds were administered and Ca^2+ signals were recorded for additional 10 min.
Inhibition of endogenous SOC in HEK293 cells was quantified employing the average Ca^2+ signal measured from 9.5-10 min post-administration. Zero percent inhibition (MAX) was defined as the Ca^2+ signal recorded from wells to which DMSO-only had been added instead of compound. Hundred percent inhibition (MIN) was defined as the signal obtained from wells in which cells haven't been treated with TG prior to Ca^2+ addition and to which DMSO-only had been added instead of compound. For routine IC50 determinations of compounds, 8 concentrations of a serial dilution (1:3.16) were tested, starting off from 10 μM. Reliable IC50's could consequently be determined only, if they were at least sub 2.5-3 μM.

T1 sequence (Q96D31 whole entry): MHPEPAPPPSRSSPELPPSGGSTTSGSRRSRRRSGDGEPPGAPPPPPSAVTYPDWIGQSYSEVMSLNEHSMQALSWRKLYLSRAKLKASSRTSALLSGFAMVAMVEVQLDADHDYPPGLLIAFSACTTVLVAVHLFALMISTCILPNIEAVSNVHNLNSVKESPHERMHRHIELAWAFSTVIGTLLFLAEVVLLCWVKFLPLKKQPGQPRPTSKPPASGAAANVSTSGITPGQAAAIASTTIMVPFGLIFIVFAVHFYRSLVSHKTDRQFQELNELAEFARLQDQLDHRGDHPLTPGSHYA

Row | IC50 [1] [µM] | inhibition at 10 µM (CRAC channel) [%] | Structure (SMILES)
1 | < 0.5 | > 70 | COc1ccc(OC)c(-c2c(Cl)c(C(=O)Nc3c(F)cccc3F)nn2C)c1 [Example 39, 4-Chloro-N-(2,6-difluoro-phenyl)-5-(2,5-dimethoxyphenyl)-1-methyl-1H-pyrazole-3-carboxylic acid amide]
2 | 1 to 5 | < 50 | COc1cc(S(C)(=O)=O)ccc1-c1cc(C(=O)Nc2c(F)cccc2F)nn1C [Example 66, N-(2,6-Difluoro-phenyl)-5-(2-methoxy-4-methylsulfonyl-phenyl)-1-methyl-1H-pyrazole-3-carboxylic acid amide]
3 | < 0.5 | > 70 | COc1ccc(OC)c(-c2cc(C(=O)Nc3c(F)cccc3Cl)nn2C)c1 [Example 35, N-(2-Chloro-6-fluoro-phenyl)-5-(2,5-dimethoxyphenyl)-1-methyl-1H-pyrazole-3-carboxylic acid amide]
4 | 1 to 5 | > 70 | COc1ccccc1-c1cc(C(=O)Nc2c(F)cccc2F)nn1C [Example 1, N-(2,6-Difluoro-phenyl)-5-(2-methoxyphenyl)-1-methyl-1H-pyrazole-3-carboxylic acid amide]
5 | 0.5 to 1 | > 70 | Cn1nc(C(=O)Nc2c(F)cccc2F)cc1-c1ccc(OC(F)(F)F)cc1Cl [Example 12, 5-[2-Chloro-4-(trifluoromethyloxy)-phenyl]-N-(2,6-difluoro-phenyl)-1-methyl-1H-pyrazole-3-carboxylic acid amide]
6 | 1 to 5 | 50 to 70 | CCc1c(C(=O)Nc2c(F)cccc2F)nn(C)c1-c1cc(OC)ccc1OC [Example 42, N-(2,6-Difluoro-phenyl)-5-(2,5-dimethoxyphenyl)-4-ethyl-1-methyl-1H-pyrazole-3-carboxylic acid amide]
7 | < 0.5 | > 70 | COc1ccc(OC)c(-c2cc(C(=O)Nc3c(F)cncc3F)nn2C)c1 [Example 34, N-(3,5-Difluoro-pyridin-4-yl)-5-(2,5-dimethoxyphenyl)-1-methyl-1H-pyrazole-3-carboxylic acid amide]
8 | 1 to 5 | > 70 | COc1ccc(OC)c(-c2c(Cl)c(C(=O)Nc3ccncc3F)nn2C)c1 [Example 40, 4-Chloro-5-(2,5-dimethoxyphenyl)-N-(3-fluoro-pyridin-4-yl)-1-methyl-1H-pyrazole-3-carboxylic acid amide]
9 | 1 to 5 | 50 to 70 | COc1ccc(OC)c(-c2cc(C(=O)Nc3ccncc3C#N)nn2C)c1 [Example 15, N-(3-Cyano-pyridin-4-yl)-5-(2,5-dimethoxyphenyl)-1-methyl-1H-pyrazole-3-carboxylic acid amide]
10 | 1 to 5 | < 50 | CNc1c(C(=O)Nc2c(F)cncc2F)nn(C)c1-c1cc(OC)ccc1OC [Example 67, N-(3,5-Difluoro-pyridin-4-yl)-5-(2,5-dimethoxyphenyl)-1-methyl-4-methylamino-1H-pyrazole-3-carboxylic acid amide]
11 | 1 to 5 | > 70 | COc1ccc(OC)c(-c2cc(C(=O)Nc3ccc(F)cc3F)nn2C)c1 [Example 2, N-(2,4-Difluoro-phenyl)-5-(2,5-dimethoxyphenyl)-1-methyl-1H-pyrazole-3-carboxylic acid amide]
12 | < 0.5 | > 70 | Cn1nc(C(=O)Nc2c(F)cccc2F)cc1-c1cc(C(F)(F)F)ccc1Cl [Example 36, 5-[2-Chloro-5-(trifluoromethyl)-phenyl]-N-(2,6-difluoro-phenyl)-1-methyl-1H-pyrazole-3-carboxylic acid amide]
13 | 0.5 to 1 | > 70 | Cc1ccc(C(F)(F)F)cc1-c1cc(C(=O)Nc2c(F)cccc2F)nn1C [Example 30, N-(2,6-Difluoro-phenyl)-1-methyl-5-[2-methyl-5-(trifluoromethyl)-phenyl]-1H-pyrazole-3-carboxylic acid amide]
14 | < 0.5 | > 70 | COc1cc(F)c(NC(=O)c2cc(-c3cc(OC)ccc3OC)n(C)n2)c(F)c1 [Example 31, N-(2,6-Difluoro-4-methoxy-phenyl)-5-(2,5-dimethoxyphenyl)-1-methyl-1H-pyrazole-3-carboxylic acid amide]
